This test addresses Tyrosine-protein kinase Lck (Homo sapiens) (UniProt P06239). Briefly: PubChem AID 1671316. The settings on record: Z'-LYTE FRET kinase assay, recombinant LCK.

Tyrosine-protein kinase Lck (Homo sapiens), sequence (P06239 whole entry, looked up): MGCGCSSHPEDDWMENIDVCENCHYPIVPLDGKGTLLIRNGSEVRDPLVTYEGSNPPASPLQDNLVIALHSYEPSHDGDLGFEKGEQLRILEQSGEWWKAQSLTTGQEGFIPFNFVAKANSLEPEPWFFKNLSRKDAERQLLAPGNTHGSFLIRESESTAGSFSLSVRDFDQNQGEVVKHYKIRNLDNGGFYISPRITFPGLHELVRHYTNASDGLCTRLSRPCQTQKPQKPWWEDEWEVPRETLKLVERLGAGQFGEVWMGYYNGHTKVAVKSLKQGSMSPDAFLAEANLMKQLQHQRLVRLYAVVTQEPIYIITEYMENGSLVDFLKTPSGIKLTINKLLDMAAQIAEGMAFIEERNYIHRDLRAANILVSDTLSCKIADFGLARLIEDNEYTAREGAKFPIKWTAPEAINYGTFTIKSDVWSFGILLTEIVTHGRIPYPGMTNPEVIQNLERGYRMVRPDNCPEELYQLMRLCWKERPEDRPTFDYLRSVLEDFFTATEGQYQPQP

As for `COc1cc2ncnc(Nc3cccc(Cl)c3)c2cc1OC`, the IC50 – broadly, the midpoint of a concentration-inhibition curve – was 0.799 µM.

Values taken from PubChem BioAssay AID1671316.
